For one test, the target named is T1, cPLA2 (Homo sapiens, UniProt P47712).
T1 sequence (P47712 1-749): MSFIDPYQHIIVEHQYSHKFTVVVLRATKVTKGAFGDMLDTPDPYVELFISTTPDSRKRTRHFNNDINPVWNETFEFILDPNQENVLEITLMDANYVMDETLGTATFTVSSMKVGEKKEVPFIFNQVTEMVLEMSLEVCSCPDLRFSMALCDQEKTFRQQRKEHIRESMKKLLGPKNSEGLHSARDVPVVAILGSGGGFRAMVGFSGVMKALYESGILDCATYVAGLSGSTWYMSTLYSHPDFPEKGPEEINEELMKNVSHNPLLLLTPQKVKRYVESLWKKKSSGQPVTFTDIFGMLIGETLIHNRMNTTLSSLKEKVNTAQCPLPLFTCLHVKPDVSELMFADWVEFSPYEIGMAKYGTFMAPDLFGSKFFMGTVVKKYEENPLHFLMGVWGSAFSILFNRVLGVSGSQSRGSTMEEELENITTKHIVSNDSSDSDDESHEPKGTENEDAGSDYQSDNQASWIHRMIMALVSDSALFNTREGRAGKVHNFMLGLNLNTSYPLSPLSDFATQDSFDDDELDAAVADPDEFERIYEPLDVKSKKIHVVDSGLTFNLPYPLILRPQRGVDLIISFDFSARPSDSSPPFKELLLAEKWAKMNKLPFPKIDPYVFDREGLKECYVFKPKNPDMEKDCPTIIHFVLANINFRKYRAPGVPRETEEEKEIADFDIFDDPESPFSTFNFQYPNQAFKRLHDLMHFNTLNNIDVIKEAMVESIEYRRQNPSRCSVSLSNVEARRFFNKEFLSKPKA
The test can be described thus: cPLA2 Inhibitory Activity. Format: biochemical. Particulars: 1-palmitoyl-2-[14C]-arachidonoyl-sn-glycero-3-phosphocholine 2.5 μM, sn-1,2-dioleoylglycerol 1.25 μM; pH 7.5, 15 min at 37° C. The method, boiled down:
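Radiometric assay in 50 mM HEPES pH 7.5 with 1 mM CaCl2, 150 mM NaCl, 0.1 mg/ml BSA and 1.7 mM DTT; compound and substrate added, reaction started with enzyme, 15 min at 37° C. Released fatty acids extracted (Dole method), counted by liquid scintillation versus no-compound control.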

Test [1] relates to production of prostaglandin E2 by human fibroblasts. The test can be described thus: Inhibition of Production of Prostaglandin E2 in Human Fibroblasts (IL-1 stimulation). It counts as cell-based. Particulars: Fibroblast; human fibroblasts under stimulation with IL-1. Summed up: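 Human fibroblasts stimulated with IL-1, with prostaglandin E2 production measured in the presence of compound as a cellular read-out of cPLA2 inhibition.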

The IC50 is the concentration that gives 50% inhibition. The low end stands for higher potency, the high end for lower potency.

Turning to `CN(c1ccccc1)c1cccc(O[C@@H]2C[C@@H](CNC(=O)c3ccc(/C=C4\SC(=O)NC4=O)cc3)N(C(=O)c3ccccc3C(=O)c3ccc(F)cc3)C2)c1` [Compound A-91], the figures for the IC50 (on cPLA2; in test [1]) were 50 nM and 940 nM, respectively.
On to `O=C1NC(=O)/C(=C/c2ccc(C(=O)NC[C@@H]3C[C@@H](Oc4ccccc4-c4cccc5ccccc45)CN3C(=O)c3ccccc3C(=O)c3ccc(F)cc3)cc2)S1` [Compound A-94], for which the IC50 against cPLA2 was found to be 24 nM; in test [1], 1400 nM.
Consider `O=C1NC(=O)/C(=C/c2ccc(C(=O)NC[C@@H]3C[C@@H](Oc4ccccc4-c4ccc5ccccc5c4)CN3C(=O)c3ccccc3C(=O)c3ccc(F)cc3)cc2)S1` [Compound A-95], for which the IC50 against cPLA2 amounted to 76 nM; in test [1], 390 nM.
The matching figures for `Cc1ccccc1-c1ccccc1O[C@@H]1C[C@@H](CNC(=O)c2ccc(/C=C3\SC(=O)NC3=O)cc2)N(C(=O)c2ccccc2C(=O)c2ccc(F)cc2)C1` [Compound A-97]: 51 nM and 640 nM.
With `COc1cccc(-c2ccccc2O[C@@H]2C[C@@H](CNC(=O)c3ccc(/C=C4\SC(=O)NC4=O)cc3)N(C(=O)c3ccccc3C(=O)c3ccc(F)cc3)C2)c1` [Compound A-98], the IC50 against cPLA2 was determined as 59 nM; in test [1] it was 440 nM.
As to `O=C1NC(=O)/C(=C/c2ccc(C(=O)NC[C@@H]3C[C@@H](Oc4ccccc4-c4ccc5c(c4)OCO5)CN3C(=O)c3ccccc3C(=O)c3ccc(F)cc3)cc2)S1` [Compound A-101], the IC50 against cPLA2 was found to be 62 nM; in test [1], 350 nM.
In the case of `O=C1NC(=O)/C(=C/c2ccc(C(=O)NC[C@@H]3C[C@@H](Oc4ccccc4-c4cccc5c4OCO5)CN3C(=O)c3ccccc3C(=O)c3ccc(F)cc3)cc2)S1` [Compound A-102], the values for the IC50 (at cPLA2; in test [1]) were 52 nM and 330 nM, respectively.
On the same counts, the results for `O=C1NC(=O)/C(=C/c2ccc(C(=O)NC[C@@H]3C[C@@H](Oc4ccccc4-c4ccccc4-c4ccccc4)CN3C(=O)c3ccccc3C(=O)c3ccc(F)cc3)cc2)S1` [Compound A-103] are 58 nM and 590 nM.
As to `CC(C)c1cccc(-c2ccccc2)c1O[C@@H]1C[C@@H](CNC(=O)c2ccc(/C=C3\SC(=O)NC3=O)cc2)N(C(=O)c2ccccc2C(=O)c2ccc(F)cc2)C1` [Compound A-104], the IC50 worked out at 38 nM at cPLA2 and 1300 nM in test [1].
In the case of `COc1ccccc1-c1ccccc1O[C@@H]1C[C@@H](CNC(=O)c2ccc(/C=C3\SC(=O)NC3=O)cc2)N(C(=O)c2ccccc2C(=O)c2ccc(F)cc2)C1` [Compound A-107], the concentration for half-maximal inhibition (IC50) worked out at 41 nM against cPLA2 and 1100 nM in test [1].
Regarding `Cc1cccc(-c2ccccc2O[C@@H]2C[C@@H](CNC(=O)c3ccc(/C=C4\SC(=O)NC4=O)cc3)N(C(=O)c3ccccc3C(=O)c3ccc(F)cc3)C2)c1` [Compound A-108], the IC50 against cPLA2 turned out to be 44 nM; in test [1], 470 nM.
For the molecule `O=C1NC(=O)/C(=C/c2ccc(C(=O)NC[C@@H]3C[C@@H](Oc4ccccc4-c4cccc(C(F)(F)F)c4)CN3C(=O)c3ccccc3C(=O)c3ccc(F)cc3)cc2)S1` [Compound A-109], the figures for the IC50 (on cPLA2; in test [1]) were 59 nM and 1200 nM, respectively.
Take `O=C1NC(=O)/C(=C/c2ccc(C(=O)NC[C@@H]3C[C@@H](Oc4ccccc4-c4cccc([N+](=O)[O-])c4)CN3C(=O)c3ccccc3C(=O)c3ccc(F)cc3)cc2)S1` [Compound A-111]: the IC50 was 66 nM on cPLA2 and 470 nM in test [1].
The matching figures for `O=C1NC(=O)/C(=C/c2ccc(C(=O)NC[C@@H]3C[C@@H](Oc4ccccc4-c4cccc(-c5ccccc5)c4)CN3C(=O)c3ccccc3C(=O)c3ccc(F)cc3)cc2)S1` [Compound A-112]: 65 nM and 1700 nM.
As to `CC(C)c1ccccc1-c1ccccc1O[C@@H]1C[C@@H](CNC(=O)c2ccc(/C=C3\SC(=O)NC3=O)cc2)N(C(=O)c2ccccc2C(=O)c2ccc(F)cc2)C1` [Compound A-115], the IC50 against cPLA2 stood at 10 nM; in test [1], 4600 nM.
`COc1cccc(-c2ccccc2)c1O[C@@H]1C[C@@H](CNC(=O)c2ccc(/C=C3\SC(=O)NC3=O)cc2)N(C(=O)c2ccccc2C(=O)c2ccc(F)cc2)C1` [Compound A-117]: the IC50 came out at 15 nM at cPLA2 and 200 nM in test [1].
The matching figures for `COc1cccc(-c2cccc3ccccc23)c1O[C@@H]1C[C@@H](CNC(=O)c2ccc(/C=C3\SC(=O)NC3=O)cc2)N(C(=O)c2ccccc2C(=O)c2ccc(F)cc2)C1` [Compound A-118]: 8 nM and 2200 nM.
The matching figures for `O=C1NC(=O)/C(=C/c2ccc(C(=O)NC[C@@H]3C[C@@H](Oc4ccccc4Oc4ccccc4)CN3C(=O)c3ccccc3C(=O)c3ccc(F)cc3)cc2)S1` [Compound A-119]: 30 nM and 2800 nM.
The matching figures for `COc1cccc(-c2ccccc2C(C)C)c1O[C@@H]1C[C@@H](CNC(=O)c2ccc(/C=C3\SC(=O)NC3=O)cc2)N(C(=O)c2ccccc2C(=O)c2ccc(F)cc2)C1` [Compound A-120]: 29 nM and 740 nM.
As for `COc1cccc(-c2ccccc2OC(C)C)c1O[C@@H]1C[C@@H](CNC(=O)c2ccc(/C=C3\SC(=O)NC3=O)cc2)N(C(=O)c2ccccc2C(=O)c2ccc(F)cc2)C1` [Compound A-122], the IC50 was 35 nM on cPLA2 and 1400 nM in test [1].
For `O=C1NC(=O)/C(=C/c2ccc(NC(=O)[C@@H]3C[C@@H](OCc4ccccc4-c4ccccc4)CN3C(=O)c3ccccc3C(=O)c3ccc(F)cc3)cc2)S1` [Compound B-1], the IC50 came to 210 nM against cPLA2 and 12000 nM in test [1].
In the case of `O=C1NC(=S)S/C1=C\c1ccc(NC(=O)[C@@H]2C[C@@H](OCc3ccccc3-c3ccccc3)CN2C(=O)c2ccccc2C(=O)c2ccc(F)cc2)cc1` [Compound B-2], the IC50 amounted to 84 nM against cPLA2 and 4000 nM in test [1].
With `O=C1NC(=O)/C(=C/c2ccc(NC(=O)[C@@H]3C[C@@H](OCc4ccccc4-c4ccccc4)CN3C(=O)c3ccccc3C(=O)c3ccc(Cl)cc3)cc2)S1` [Compound B-3], the figures for the IC50 (against cPLA2; in test [1]) were 420 nM and 3900 nM, respectively.
For `O=C1NC(=S)S/C1=C\c1ccc(NC(=O)[C@@H]2C[C@@H](OCc3ccccc3-c3ccccc3)CN2C(=O)c2ccccc2C(=O)c2ccc(Cl)cc2)cc1` [Compound B-4], the results for the IC50 (on cPLA2; in test [1]) were 130 nM and 5600 nM, respectively.
For `Cc1ccc(C(=O)c2ccccc2C(=O)N2C[C@H](OCc3ccccc3-c3ccccc3)C[C@H]2C(=O)Nc2ccc(/C=C3\SC(=O)NC3=O)cc2)cc1` [Compound B-5], the half-inhibitory concentration (IC50) against cPLA2 was determined as 440 nM; in test [1] it was 7400 nM.
On the same counts, the results for `Cc1ccc(C(=O)c2ccccc2C(=O)N2C[C@H](OCc3ccccc3-c3ccccc3)C[C@H]2C(=O)Nc2ccc(/C=C3\SC(=S)NC3=O)cc2)cc1` [Compound B-6] are 140 nM and 7100 nM.
On the same counts, the results for `O=C1NC(=S)S/C1=C\c1ccc(NC(=O)[C@@H]2C[C@@H](OCc3ccccc3-c3ccccc3)CN2C(=O)c2ccccc2C(=O)c2ccc(F)cc2)s1` [Compound B-7] are 1000 nM and 8100 nM.
`O=C1NC(=O)/C(=C/c2ccc(NC(=O)[C@@H]3C[C@@H](OCc4ccccc4-c4ccccc4)CN3C(=O)c3ccccc3C(=O)c3ccc(F)cc3)s2)S1` [Compound B-8]: the figures for the IC50 (against cPLA2; in test [1]) were 1000 nM and 2700 nM, respectively.
Consider `O=C1NC(=O)/C(=C/c2ccc(COC[C@@H]3C[C@@H](OCc4ccccc4-c4ccccc4)CN3C(=O)c3ccccc3C(=O)c3ccc(F)cc3)cc2)S1` [Compound C-1], for which the IC50 against cPLA2 turned out to be 350 nM; in test [1] it was 2300 nM.
On the same counts, the results for `O=C1NC(=S)S/C1=C\c1ccc(COC[C@@H]2C[C@@H](OCc3ccccc3-c3ccccc3)CN2C(=O)c2ccccc2C(=O)c2ccc(F)cc2)cc1` [Compound C-2] are 1100 nM and 2200 nM.
In the case of `O=C1NC(=S)S/C1=C\c1ccc(CC[C@@H]2C[C@@H](OCc3ccccc3-c3ccccc3)CN2C(=O)c2ccccc2C(=O)c2ccc(F)cc2)cc1` [Compound E-1], the half-maximal inhibitory concentration (IC50) was determined as 1100 nM on cPLA2 and 2200 nM in test [1].
The matching figures for `O=C1NC(=O)/C(=C/c2ccc(CC[C@@H]3C[C@@H](OCc4ccccc4-c4ccccc4)CN3C(=O)c3ccccc3C(=O)c3ccc(F)cc3)cc2)S1` [Compound E-2]: 280 nM and 1100 nM.
The matching figures for `O=C1NC(=S)S/C1=C\c1ccc(C=C[C@@H]2C[C@@H](OCc3ccccc3-c3ccccc3)CN2C(=O)c2ccccc2C(=O)c2ccc(F)cc2)cc1` [Compound E-3]: 730 nM and 6000 nM.

The values above are taken from patent publication US6147100A, “Pyrrolidine derivatives having phospholipase A2 inhibitory activity” (Shionogi & Co., Ltd., priority 1997, dated 2000).
